One experiment concerns the target CDK2/Cyclin E1 complex (Homo sapiens, UniProt P24941). Kind of experiment: CDK2 inhibition assay (Caliper/LabChip EZ Reader kinase assay). The experiment is classed as biochemical. The note with it: Table 1, CDK2/Cyclin E1 0.5 nM, ATP 2 mM, 35 min at 27° C. In outline: (§1)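 Caliper/LabChip EZ Reader mobility-shift assays. CDK9/Cyclin T1 at 8 nM with 2 μM 5-FAM-CDK9tide peptide and 10 mM MgCl2; CDK2/Cyclin E1 at 0.5 nM with 2 μM 5-FAM-CDK7tide and 2 mM MgCl2.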

The target in experiment [1] is CDK7/Cyclin H/MAT1 complex (Homo sapiens, UniProt P50613). Kind of experiment: CDK7 inhibition assay (Caliper/LabChip EZ Reader kinase assay). The format is biochemical. Particulars: Table 1, CDK7/Cyclin H/MAT1 6 nM, ATP 2 mM, 35 min at 27° C. An outline of the steps:
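A Perkin Elmer Caliper/LabChip EZ Reader (Waltham, MA) platform served as the basis for this CDK7 kinase inhibition assay. The work was carried out by Biortus Biosciences, located in Jiangyin, Jiangsu Province, P.R. of China. Each CDK studied had its own kinase assay, and compounds were evaluated for their ability to block CDK7 activity.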

The next experiment has as its system A673 cells. Put plainly: Inhibition of proliferation of A673 cells (CyQUANT, 72 hour). The experiment is classed as cell-based, human. The note with it: A673 cells, 72 hour, CyQUANT, read-out: Inhibition of Proliferation of A673 Cells (calculated IC50). An outline of the steps: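 Human Ewing's sarcoma A673 cells in DMEM with 10% FBS and 1 mM sodium pyruvate, 37° C, 5% CO2, treated 72 h with compound from 4 μM to […] (0.5 log dilutions). Antiproliferative effect read by CyQUANT assay.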

The target of experiment [2] is T1, CDK12 (aa686-1082)/Cyclin K complex (Homo sapiens, UniProt Q9NYV4).
T1 construct: CDK12 (aa686-1082)/Cyclin K complex
Put plainly: CDK12 inhibition assay (Caliper/LabChip EZ Reader kinase assay). The experiment is classed as biochemical. The note with it: Table 1, CDK12 (aa686-1082)/Cyclin K 50 nM, ATP 2 mM, 3 hr at 27° C.

A further experiment concerns the target CDK9/Cyclin T1 complex (Homo sapiens, UniProt P50750). Put plainly: CDK9 inhibition assay (Caliper/LabChip EZ Reader kinase assay). The format is biochemical. Particulars: Table 1, CDK9/Cyclin T1 8 nM, ATP 2 mM, 15 min at 27° C. In outline: as §1
A further experiment has as its system HCC70 cells. Kind of experiment: Inhibition of proliferation of HCC70 cells (CyQUANT Direct Cell Proliferation Assay, 72 hour). The experiment is classed as cell-based, human. Particulars: Homo sapiens, HCC70, 72 h, read-out: Inhibition of Proliferation of HCC70 Cells (calculated IC50). An outline of the steps: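 Human triple-negative breast cancer HCC70 cells cultured at 37° C, 5% CO2, with compound for 72 hour. Anti-proliferative effect read by CyQUANT Direct Cell Proliferation Assay. Dinaciclib, a CDK inhibitor analog and triptolide served as positive controls.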

For 19 compounds, IC50 results are on record in patent US20240360165A1, “INHIBITORS OF CYCLIN DEPENDENT KINASE 7 (CDK7)” (Syros Pharmaceuticals, Inc., priority 2016, published 2024).

The structures appear in SMILES notation. pIC50: −log10 of the molar value. Like-named read-outs stand apart in the source and are kept apart here.

CDK9/Cyclin T1 complex, sequence (P50750 whole entry, species assumed): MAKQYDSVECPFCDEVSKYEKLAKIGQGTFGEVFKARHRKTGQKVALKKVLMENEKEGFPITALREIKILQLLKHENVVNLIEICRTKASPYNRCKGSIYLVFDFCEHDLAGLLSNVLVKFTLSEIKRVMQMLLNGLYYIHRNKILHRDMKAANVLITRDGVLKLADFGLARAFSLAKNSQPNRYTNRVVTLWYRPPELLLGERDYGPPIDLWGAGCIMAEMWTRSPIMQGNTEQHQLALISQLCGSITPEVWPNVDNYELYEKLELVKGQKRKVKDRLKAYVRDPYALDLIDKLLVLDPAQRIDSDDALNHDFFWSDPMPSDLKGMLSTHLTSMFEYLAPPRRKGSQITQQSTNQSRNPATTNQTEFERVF
CDK9/Cyclin T1 complex, sequence (O60563 whole entry partner, species assumed): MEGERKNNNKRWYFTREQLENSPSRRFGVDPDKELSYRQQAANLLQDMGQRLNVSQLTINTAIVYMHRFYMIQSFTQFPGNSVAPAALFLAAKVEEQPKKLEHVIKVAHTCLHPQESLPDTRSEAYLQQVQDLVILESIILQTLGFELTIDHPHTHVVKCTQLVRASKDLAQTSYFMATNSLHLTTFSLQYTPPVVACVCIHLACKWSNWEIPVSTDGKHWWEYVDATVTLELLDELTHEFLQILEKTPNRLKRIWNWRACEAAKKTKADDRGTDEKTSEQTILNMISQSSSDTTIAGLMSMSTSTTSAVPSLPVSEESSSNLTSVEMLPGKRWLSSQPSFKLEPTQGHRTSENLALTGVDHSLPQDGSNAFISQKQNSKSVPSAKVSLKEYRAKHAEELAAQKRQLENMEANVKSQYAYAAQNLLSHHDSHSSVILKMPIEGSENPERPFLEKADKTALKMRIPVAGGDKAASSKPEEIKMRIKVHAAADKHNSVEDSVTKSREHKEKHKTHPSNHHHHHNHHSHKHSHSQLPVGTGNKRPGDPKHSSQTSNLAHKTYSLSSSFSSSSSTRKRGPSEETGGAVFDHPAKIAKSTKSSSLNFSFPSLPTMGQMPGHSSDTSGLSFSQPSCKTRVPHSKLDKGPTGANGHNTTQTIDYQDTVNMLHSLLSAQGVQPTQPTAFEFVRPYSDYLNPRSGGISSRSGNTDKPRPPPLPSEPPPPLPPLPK
T1 sequence (Q9NYV4 686-1082, species assumed): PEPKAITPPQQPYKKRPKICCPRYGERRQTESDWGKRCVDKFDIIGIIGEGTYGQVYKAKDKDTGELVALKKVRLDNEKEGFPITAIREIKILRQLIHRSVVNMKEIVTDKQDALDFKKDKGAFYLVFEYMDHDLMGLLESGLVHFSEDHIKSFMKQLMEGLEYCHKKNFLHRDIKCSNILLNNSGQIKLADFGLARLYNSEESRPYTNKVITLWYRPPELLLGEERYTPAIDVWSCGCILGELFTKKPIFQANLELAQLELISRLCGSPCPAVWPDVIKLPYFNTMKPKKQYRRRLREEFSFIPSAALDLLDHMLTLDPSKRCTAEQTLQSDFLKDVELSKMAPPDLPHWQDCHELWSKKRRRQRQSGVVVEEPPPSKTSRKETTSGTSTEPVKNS
T1 sequence (O75909 whole entry partner, species assumed, the tested form may be a part): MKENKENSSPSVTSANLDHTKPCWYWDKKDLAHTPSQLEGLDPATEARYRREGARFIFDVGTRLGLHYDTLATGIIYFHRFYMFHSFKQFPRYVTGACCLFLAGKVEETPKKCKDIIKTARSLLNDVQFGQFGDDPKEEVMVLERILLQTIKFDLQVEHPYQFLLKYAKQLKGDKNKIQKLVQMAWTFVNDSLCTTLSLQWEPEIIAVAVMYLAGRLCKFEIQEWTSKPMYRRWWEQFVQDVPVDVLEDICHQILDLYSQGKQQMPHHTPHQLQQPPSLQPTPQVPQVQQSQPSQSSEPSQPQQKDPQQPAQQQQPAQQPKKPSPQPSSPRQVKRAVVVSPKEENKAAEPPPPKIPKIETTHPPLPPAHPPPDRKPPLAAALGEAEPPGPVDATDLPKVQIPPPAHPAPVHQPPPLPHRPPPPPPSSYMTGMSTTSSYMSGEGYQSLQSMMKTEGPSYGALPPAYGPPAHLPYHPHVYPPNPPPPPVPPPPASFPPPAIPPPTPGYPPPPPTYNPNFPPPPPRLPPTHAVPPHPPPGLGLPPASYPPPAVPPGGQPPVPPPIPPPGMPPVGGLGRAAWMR
CDK7/Cyclin H/MAT1 complex, sequence (P50613 whole entry, species assumed): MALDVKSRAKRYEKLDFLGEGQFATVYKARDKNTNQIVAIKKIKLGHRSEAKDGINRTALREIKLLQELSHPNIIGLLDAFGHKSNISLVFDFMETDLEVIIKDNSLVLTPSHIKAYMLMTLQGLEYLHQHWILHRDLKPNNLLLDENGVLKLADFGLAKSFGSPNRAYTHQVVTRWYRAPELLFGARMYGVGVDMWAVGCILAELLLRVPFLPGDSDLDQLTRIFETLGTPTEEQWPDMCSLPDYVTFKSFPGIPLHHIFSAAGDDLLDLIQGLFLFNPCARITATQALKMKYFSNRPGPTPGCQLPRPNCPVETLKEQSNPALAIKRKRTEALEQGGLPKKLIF
CDK7/Cyclin H/MAT1 complex, sequence (P51946 whole entry partner, species assumed): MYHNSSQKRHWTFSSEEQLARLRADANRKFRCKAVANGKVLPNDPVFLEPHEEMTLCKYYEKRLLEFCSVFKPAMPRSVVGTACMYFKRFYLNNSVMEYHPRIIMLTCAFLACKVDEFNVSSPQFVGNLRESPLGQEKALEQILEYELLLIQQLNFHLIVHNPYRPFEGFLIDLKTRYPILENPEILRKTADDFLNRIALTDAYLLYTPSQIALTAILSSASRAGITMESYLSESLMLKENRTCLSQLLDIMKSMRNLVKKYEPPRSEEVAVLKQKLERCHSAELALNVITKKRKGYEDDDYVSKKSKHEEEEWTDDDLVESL
CDK7/Cyclin H/MAT1 complex, sequence (P51948 whole entry partner, species assumed): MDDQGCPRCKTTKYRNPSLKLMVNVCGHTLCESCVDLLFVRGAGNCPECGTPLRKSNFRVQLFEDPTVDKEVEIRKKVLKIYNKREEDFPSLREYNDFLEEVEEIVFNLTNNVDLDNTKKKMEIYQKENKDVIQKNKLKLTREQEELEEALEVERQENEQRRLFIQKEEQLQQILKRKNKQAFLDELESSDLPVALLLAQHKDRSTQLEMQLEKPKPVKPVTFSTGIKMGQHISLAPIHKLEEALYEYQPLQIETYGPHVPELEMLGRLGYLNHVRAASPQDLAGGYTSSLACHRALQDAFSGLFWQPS

In the case of `O=C(C1CCC(Nc2ncc(C(F)(F)F)c(-c3c[nH]c4ccccc34)n2)CN1)N1CCC(O)C1` (mixture of isomers) [Compound 250], the pIC50 against CDK2/Cyclin E1 complex was 5.30 to 6.70; in experiment [1] it was above 7.70; in the experiment on A673 cells, 5.30 to 6.70; in experiment [2], 5.30 to 6.70; against CDK9/Cyclin T1 complex, below 5.30; with HCC70 cells, 5.30 to 6.00.

For `CC1(O)CCN(C(=O)c2ccc3c(-c4nc(N[C@H]5CCCNC5)ncc4C(F)(F)F)c[nH]c3c2)C1` (single isomer, unassigned) [Compound 221], the pIC50 is below 5.30 against CDK2/Cyclin E1 complex; above 7.70 in experiment [1]; 5.30 to 6.70 with A673 cells (Homo sapiens, A673, 72 h); below 5.30 in experiment [2]; below 5.30 against CDK9/Cyclin T1 complex; 6.00 to 7.00 with HCC70 cells.

For `Cc1n[nH]cc1-c1cccc2c(-c3nc(NC4CCCNC4)ncc3C(F)(F)F)c[nH]c12` (stereo in doubt) [Compound 175], the pIC50 was 5.30 to 6.70 against CDK2/Cyclin E1 complex; above 7.70 in experiment [1]; above 7.70 in the experiment on A673 cells (Homo sapiens, A673, 72 h); 5.30 to 6.70 in experiment [2]; 6.70 to 7.70 on CDK9/Cyclin T1 complex; 5.30 to 6.00 with HCC70 cells.

With `FC(F)(F)c1cnc(N[C@H]2CCCNC2)nc1-c1n[nH]c2ccccc12` [Compound 103], the pIC50 was 5.30 to 6.70 against CDK2/Cyclin E1 complex; above 7.70 in experiment [1]; 6.70 to 7.70 in the experiment on A673 cells (Homo sapiens, A673, 72 h); 6.70 to 7.70 in experiment [2]; 5.30 to 6.70 on CDK9/Cyclin T1 complex; above 7.00 in the experiment on HCC70 cells.

`CCc1cnc(NC2CCCNC2)nc1-c1c[nH]c2c(F)cccc12` (centres unmarked) [Compound 144]: the pIC50 against CDK2/Cyclin E1 complex was 5.30 to 6.70; in experiment [1], above 7.70; in the experiment on A673 cells (Homo sapiens, A673, 72 h) it was 6.70 to 7.70; in experiment [2], 5.30 to 6.70; against CDK9/Cyclin T1 complex, 5.30 to 6.70; in the experiment on HCC70 cells it was 6.00 to 7.00.

As for `CCc1cnc(N[C@H]2CCCNC2)nc1-c1c[nH]c2c(F)c(C#N)ccc12` [Compound 360, 3-[5-ethyl-2-[[(3S)-3-piperidyl]amino]pyrimidin-4-yl]-7-fluoro-1H-indole-6-carbonitrile], the pIC50 is below 5.30 against CDK2/Cyclin E1 complex; 6.70 to 7.70 in experiment [1]; below 5.30 in experiment [2]; below 5.30 against CDK9/Cyclin T1 complex; 5.30 to 6.00 with HCC70 cells.

Turning to `N#Cc1ccc2c(-c3nc(N[C@H]4CCCNC4)ncc3SC(F)F)c[nH]c2c1` [Compound 361, 3-[5-(difluoromethylsulfanyl)-2-[[(3S)-3-piperidyl]amino]pyrimidin-4-yl]-1H-indole-6-carbonitrile], the pIC50 was below 5.30 against CDK2/Cyclin E1 complex; 6.70 to 7.70 in experiment [1]; 5.30 to 6.70 in experiment [2]; 5.30 to 6.70 at CDK9/Cyclin T1 complex; 6.00 to 7.00 in the experiment on HCC70 cells.

In the case of `CN1CCC[C@H](Nc2ncc(C(F)(F)F)c(-c3c[nH]c4cc(S(C)(=O)=O)ccc34)n2)C1` [Compound 364, N-[(3S)-1-methyl-3-piperidyl]-4-(6-methylsulfonyl-1H-indol-3-yl)-5-(trifluoromethyl)pyrimidin-2-amine], the pIC50 is below 5.30 on CDK2/Cyclin E1 complex; 6.70 to 7.70 in experiment [1]; below 5.30 in experiment [2]; below 5.30 against CDK9/Cyclin T1 complex; 5.30 to 6.00 with HCC70 cells.

In the case of `O=S(=O)(CF)c1ccc2c(-c3nc(N[C@H]4CCCNC4)ncc3C(F)(F)F)c[nH]c2c1` [Compound 365, 4-[6-(fluoromethylsulfonyl)-1H-indol-3-yl]-N-[(3S)-3-piperidyl]-5-(trifluoromethyl)pyrimidin-2-amine], the pIC50 against CDK2/Cyclin E1 complex is 5.30 to 6.70; in experiment [1], above 7.70; in experiment [2], 5.30 to 6.70; on CDK9/Cyclin T1 complex, 5.30 to 6.70; in the experiment on HCC70 cells, 6.00 to 7.00.

In the case of `CCCc1cnc(N[C@H]2CCCNC2)nc1-c1c[nH]c2c(S(C)(=O)=O)c(C#N)ccc12` [Compound 367, 7-methylsulfonyl-3-[2-[[(3S)-3-piperidyl]amino]-5-propyl-pyrimidin-4-yl]-1H-indole-6-carbonitrile], the pIC50 on CDK2/Cyclin E1 complex is below 5.30; in experiment [1], 6.70 to 7.70; in experiment [2] it was below 5.30; against CDK9/Cyclin T1 complex it was below 5.30; in the experiment with HCC70 cells, 5.30 to 6.00.

For the compound `N#Cc1ccc2c(-c3nc(N[C@@H]4CNC[C@@H](F)C4)ncc3C(F)(F)F)c[nH]c2c1` [Compound 368, 3-[2-[[(3S,5S)-5-fluoro-3-piperidyl]amino]-5-(trifluoromethyl)pyrimidin-4-yl]-1H-Indole-6-carbonitrile], the pIC50 on CDK2/Cyclin E1 complex is below 5.30; against CDK2/Cyclin E1 complex (listed as 128) it was below 5.30; in experiment [1], 6.70 to 7.70; in experiment [1] (listed as 128), below 5.30; in experiment [2], 5.30 to 6.70; in experiment [2] (listed as 128) it was below 5.30. For the same compound, the pIC50 against CDK9/Cyclin T1 complex was below 5.30; at CDK9/Cyclin T1 complex (listed as 128), below 5.30; with HCC70 cells, 5.30 to 6.00.

As to `CN(C)S(=O)(=O)c1cccc2c(-c3nc(NC4CCCNC4)ncc3C(F)(F)F)c[nH]c12` (centres unmarked) [Compound 371], the pIC50 against CDK2/Cyclin E1 complex was 5.30 to 6.70; in experiment [1], above 7.70; in experiment [2], 5.30 to 6.70; on CDK9/Cyclin T1 complex, 5.30 to 6.70; with HCC70 cells it was above 7.00.

For the compound `FC(F)Sc1ccc2c(-c3nc(N[C@H]4CCCNC4)ncc3C(F)(F)F)c[nH]c2c1` [Compound 374, 4-[6-(difluoromethylsulfanyl)-1H-indol-3-yl]-N-[(3S)-3-piperidyl]-5-(trifluoromethyl) pyrimidin-2-amine], the pIC50 on CDK2/Cyclin E1 complex was 5.30 to 6.70; in experiment [1], above 7.70; in experiment [2] it was 6.70 to 7.70; against CDK9/Cyclin T1 complex, 5.30 to 6.70; in the experiment on HCC70 cells, above 7.00.

Turning to `O=S(=O)(c1ccc2c(-c3nc(N[C@H]4CCCNC4)ncc3C(F)(F)F)c[nH]c2c1)C(F)F` [Compound 375, 4-[6-(difluoromethylsulfonyl)-1H-indol-3-yl]-N-[(3S)-3-piperidyl]-5-(trifluoromethyl)pyrimidin-2-amine], the pIC50 against CDK2/Cyclin E1 complex was 5.30 to 6.70; in experiment [1], above 7.70; in experiment [2] it was 5.30 to 6.70; at CDK9/Cyclin T1 complex, 5.30 to 6.70; in the experiment on HCC70 cells, 6.00 to 7.00.

For the compound `CC1(C)CNC[C@@H](Nc2ncc(C(F)(F)F)c(-c3c[nH]c4cc(S(C)(=O)=O)ccc34)n2)C1` [Compound 376, N-[(3S)-5,5-dimethyl-3-piperidyl]-4-(6-methylsulfonyl-1H-indol-3-yl)-5-(trifluoromethyl) pyrimidin-2-amine], the pIC50 was 5.30 to 6.70 on CDK2/Cyclin E1 complex; 6.70 to 7.70 in experiment [1]; 5.30 to 6.70 in experiment [2]; below 5.30 against CDK9/Cyclin T1 complex; 6.00 to 7.00 in the experiment with HCC70 cells.

`CCP(=O)(CC)c1ccc2c(-c3nc(N[C@H]4CCCNC4)ncc3C(F)(F)F)c[nH]c2c1` [Compound 379]: the pIC50 on CDK2/Cyclin E1 complex was below 5.30; in experiment [1], 6.70 to 7.70; in experiment [2] it was below 5.30; at CDK9/Cyclin T1 complex, below 5.30; in the experiment on HCC70 cells it was 5.30 to 6.00.

On to `[O-][S+](c1ccc2c(-c3nc(N[C@H]4CCCNC4)ncc3C(F)(F)F)c[nH]c2c1)C(F)F` (stereo partly drawn) [Compound 380, 4-[6-(difluoromethylsulfinyl)-1H-indol-3-yl]-N-[(3S)-3-piperidyl]-5-(trifluoromethyl) pyrimidin-2-amine], for which the pIC50 at CDK2/Cyclin E1 complex was 5.30 to 6.70; in experiment [1], above 7.70; in experiment [2] it was 5.30 to 6.70; against CDK9/Cyclin T1 complex, 5.30 to 6.70; in the experiment on HCC70 cells it was above 7.00.

Consider `CS(=O)(=O)c1ccc2c(-c3nc(N[C@H]4CCCN(C5CC5)C4)ncc3C(F)(F)F)c[nH]c2c1` [Compound 381, N-[(3S)-1-cyclopropyl-3-piperidyl]-4-(6-methylsulfonyl-1H-indol-3-yl)-5-(trifluoromethyl) pyrimidin-2-amine], for which the pIC50 against CDK2/Cyclin E1 complex was below 5.30; in experiment [1] it was 6.70 to 7.70; in experiment [2], 5.30 to 6.70; at CDK9/Cyclin T1 complex, below 5.30; in the experiment with HCC70 cells, 5.30 to 6.00.

Regarding `CC1(C)CNC[C@@H](Nc2ncc(Cl)c(-c3c[nH]c4c(S(C)(=O)=O)c(C#N)ccc34)n2)C1` [Compound 382, 3-[5-chloro-2-[[(3S)-5,5-dimethyl-3-piperidyl]amino]pyrimidin-4-yl]-7-methylsulfonyl-1H-indole-6-carbonitrile], the pIC50 is 5.30 to 6.70 against CDK2/Cyclin E1 complex; above 7.70 in experiment [1]; 5.30 to 6.70 in experiment [2]; 5.30 to 6.70 on CDK9/Cyclin T1 complex; above 7.00 in the experiment on HCC70 cells.
